Measured values: patent US9572786B2, “Use of capsiate or dihydrocapsidate” (Catholic University Industry Academy Cooperation Foundation, priority 2007, dated 2017)

What was measured:
p38 [1] = assay: MAPK signaling after UV, Western blotting: p38; format: cell-based, human; conditions: HaCaT cells; 10, 25, 50 μM; 30 minutes after UV irradiation
Procedure: (§1) Western blotting was performed in the same manner as in Example 2-1 in order to identify the factor that affects the COX-2 expression regulated by capsiate, except for treating the cells with capsiate at different concentrations (10 μM, 25 μM and 50 μM) prior to UV irradiation, and using rabbit anti-ERK antibody, rabbit anti-p-ERK antibody, rabbit anti-p38 antibody, rabbit anti-p-p38 antibody, rabbit anti-JNK antibody and rabbit anti-p-JNK antibody (cell signaling), and anti-rabbit IgG-HRP conjugation antibody (Zymed) as the secondary antibody, 30 minutes after UV irradiation.

JNK = assay: MAPK signaling after UV, Western blotting: JNK; format: cell-based, human; conditions: HaCaT cells; 10, 25, 50 μM; 30 minutes after UV irradiation
Procedure: as §1

hairless mouse (SKH-1) = assay: UV-induced skin damage in hairless mouse (observation, hematoxylin-eosin staining); format: in vivo; conditions: 200 μL of 1 mM in acetone topically every 24 hours, UV 2.5 kJ/m^2 4 times
Procedure: (§2) In order to confirm the in vitro experiment result performed on the human keratinocyte HaCaT cells in an animal model, experiment was carried out as follows using hairless mouse (SKH-1). Test groups were as follows: non-treated group—treated with acetone only without UV irradiation; test group A—treated with 200 μL of 1 mM capsiate dissolved in acetone every 24 hours without UV irradiation; control group—treated with UV and acetone; test group B—treated with UV and 200 μL of 1 mM capsiate dissolved in acetone every 24 hours (Unspecified conditions are the same as in Examples 5-7.).
(§3) Capsiate was applied on the back of the mouse. 1 hour later, UV was irradiated at an intensity of 2.5 kJ/m^2. 1 hour later, capsiate was applied again at the same concentration in order to prevent rash which may occur immediately after UV irradiation. Thereafter, capsiate was applied every 24 hours and UV irradiation was carried out every other day at an intensity of 2.5 kJ/m^2 for 4 times. In order to investigate the change of tissue and intracellular mechanism (signaling), the mouse was euthanized 1 hour after the final UV irradiation. Skin tissue was taken from the back of the mouse and subjected to skin biopsy following observation.
Hematoxylin-eosin staining was carried out in order to investigate the overall change in the skin tissue.

COX-2 = assay: UV-induced COX-2 expression in mouse skin tissue, Western blotting; format: in vivo; conditions: hairless mouse; 200 μL of 1 mM topically; 4 times of UV irradiation
Procedure: as §2, §3
In the foregoing, it was confirmed that capsiate suppress inflammatory response, angiogenesis, edema, etc. caused by the UV-induced skin damage. […]

ERK = assay: MAPK signaling in mouse skin tissue, Western blotting: ERK; format: in vivo; conditions: hairless mouse; UV+CPT vs UV with acetone only
Procedure: (§4) In order to investigate the intracellular mechanism (signaling) related with the inhibition of COX-2 expression by capsiate, Western blotting was carried out for MAPK signaling-related proteins (ERK, p-ERK, p38, p-p38 and JNK, p-JNK) as in Example 2-2, using proteins isolated from the mouse skin tissue.

P38 [2] = assay: MAPK signaling in mouse skin tissue, Western blotting: P38; format: in vivo; conditions: hairless mouse; UV+CPT vs UV with acetone only
Procedure: as §4

MMP-9 = MMP-9 mRNA in mouse skin, RT-PCR; format: in vivo; conditions: mouse tissue of Example 5; normalized using GAPDH
Procedure: mRNA was extracted from the mouse tissue of each test group of Example 5 and the level of expression thereof was evaluated in order to investigate the effect of capsiate on the expression of MMP-2 and MMP-9 induced by angiogenesis and immune response.
For RNA extraction from the tissue, each mouse tissue was subjected to skin biopsy, quickly frozen in liquid nitrogen and finely ground using a mortar. RNA was extracted from the mouse tissue using Trizol (Invitrogen, USA). PCR (PTC-225 Peltier thermal cycler, MJ Research, USA) was carried out using the RNA as template and using a commercial kit (reverse transcription system, Qiagen, USA). As a result, cDNA for each test group was prepared.
RT-PCR (Rotor Gene 6 series, Corbett Research, Australia) was carried out using thus prepared cDNA as template and using MMP-2 and MMP-9 primers (Qiagen, USA). The level of mRNA expression for MMP was normalized using GAPDH. The level of expression was compared with that of the non-treated group, which was treated with acetone only.

hairless mouse = assay: UV-induced erythema in hairless mouse; format: in vivo; conditions: 200 μL of 1 mM topically, UV 400, 600 and 800 J/m^2, 48 hours later
Procedure: When the skin is exposed to UV, erythema, or […] of the skin, occurs accompanied by edema, prior to a variety of cellular changes including inflammation, apoptosis, carcinogenesis, or the like [Tadashi Terui, Hachiro Tagami, Mediators of inflammation involved in UVB erythema, Journal of Dermatological Science 23 Suppl. 1 (2000) S1S5]. In order to investigate the effect of capsiate on erythema accompanied by UV-induced inflammatory response, experiment was carried out as follows using hairless mouse. Test groups were as follows: non-treated group—treated with acetone only without UV irradiation; test group A—treated with 200 μL of 1 mM capsiate dissolved in acetone without UV irradiation; UV group—treated with acetone and UV; test group B—treated with UV and 200 μL of 1 mM capsiate dissolved in acetone every 24 hours.
Acetone or capsiate diluted in acetone was applied on the back of the mouse of each test group. 1 hour later, a mask was attached on the back of the mouse such that UV could be irradiated only on an area of 1.2 cm×1.2 cm. UV was irradiated at an intensity of 400, 600 and 800 J/m^2. The degree of erythema was measured 48 hours later.

COc1cc(COC(=O)CCCC/C=C/C(C)C)ccc1O [capsiate]
p38 (phosphorylation) (p38 [1]): no particular change | JNK (phosphorylation) (JNK): no particular change | blood vessels and edema (hematoxylin-eosin staining) (hairless mouse (SKH-1)): also decreased | hyperplasia in the epidermis (hematoxylin-eosin staining) (hairless mouse (SKH-1)): decreased remarkably | blood vessel thickness and blood in back skin tissue (hairless mouse (SKH-1); vs UV control): less blood vessel thickness and less blood | size and depth of wound induced by UV irradiation (hairless mouse (SKH-1); vs UV control): less severe | expression of COX-2 induced in mouse skin tissue (Western blotting) (COX-2): remarkably decreased | ERK phosphorylation in mouse skin tissue (ERK): suppressed phosphorylation | P38 (phosphorylation) in mouse skin tissue (P38 [2]): no significant difference | expression of MMP-9 (mRNA) in mouse skin tissue (MMP-9): decreased | degree of erythema (hairless mouse): weaker
